In patent US11622970B2, “BCL-2 inhibitors and their use as pharmaceuticals” (PRELUDE THERAPEUTICS INCORPORATED, priority 2020, dated 2023) one finds inhibition and IC50 data, which are given here for 22 compounds.

pIC50: −log10 of the molar value.

One may read the inhibition as how much of the control response was suppressed. For orientation: pIC50 means the IC50 on a negative log10 scale, so that one unit is a factor of ten.

The target in the test is BCL-2 recombinant protein (Homo sapiens, UniProt P10415). Description: Cell free Bcl-2:Bak affinity assay (Bcl-2 Bak), HTRF competition of FAM-Bak peptide. Type of test: binding. The note with it: 4 nM BCL-2 recombinant protein, 100 nM FAM-Bak; for inhibition at 1 µM: 1 μM compound, read-out: potency (% inhibition at 1 μM); for pIC50: 10-concentration IC50 mode, read-out: potency (IC50). The gist of the method:
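Compounds in 10-point 3-fold dilution preincubated 10 min at RT with 4 nM GST-BCL-2 (20 mM K phosphate pH 7.5, 50 mM NaCl, 1 mM EDTA, 0.005% Triton X-100), then 100 nM FAM-Bak 10 min, anti-GST-Tb added, 60 min RT dark. HTRF read; % inhibition vs DMSO and positive control, IC50 from curve fit.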
A general note: Time-resolved FRET reads energy transfer from a long-lived donor to a nearby acceptor.

BCL-2 recombinant protein, sequence (P10415 whole entry): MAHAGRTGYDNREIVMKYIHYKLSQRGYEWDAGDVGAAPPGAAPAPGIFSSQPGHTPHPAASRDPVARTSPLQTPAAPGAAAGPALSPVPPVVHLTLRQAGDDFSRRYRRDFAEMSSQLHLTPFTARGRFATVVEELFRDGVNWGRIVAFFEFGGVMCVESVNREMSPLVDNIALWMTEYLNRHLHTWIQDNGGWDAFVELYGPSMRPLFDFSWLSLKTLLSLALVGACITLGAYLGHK

Turning to `CC1(C)CCC(CN2CCN(c3ccc(S(=O)(=O)NC(=O)c4ccc(F)c(-c5ccc6[nH]nnc6c5)n4)cc3)CC2)=C(c2ccc(Cl)cc2)C1` [Example 49, 6-(1H-benzo[d][1,2,3]triazol-5-yl)-N-[4-[4-[[2-(4-chlorophenyl)-4,4-dimethylcyclohexen-1-yl]methyl]piperazin-1-yl]phenyl]sulfonyl-5-fluoro pyridine-2-carboxamide], the inhibition at 1 µM is over 90%. Still for that read-out and setting: for `CC1(C)CCC(CN2CCN(c3ccc(S(=O)(=O)NC(=O)C4CC=CCC4)cc3)CC2)=C(c2ccc(Cl)cc2)C1` (stereo not shown) [Example 28, N-([4-[4-[[2-(4-chlorophenyl)-4,4-dimethylcyclohexen-1-yl]methyl]piperazin-1-yl]phenyl]sulfonyl)cyclohex-3-ene-1-carboxamide] the value was under 50%. `CC1(C)CCC(CN2CCN(c3ccc(S(=O)(=O)NC(=O)c4ccc(COc5ccc(Cl)cc5)c(S(C)(=O)=O)c4)c(Oc4cnc5[nH]ccc5c4)c3)CC2)=C(c2ccc(Cl)cc2)C1` [Example 89, 4-[(4-chlorophenoxy)methyl]-N-[4-[4-[[2-(4-chlorophenyl)-4,4-dimethylcyclohexen-1-yl]methyl]piperazin-1-yl]-2-(1H-pyrrolo[2,3-b]pyridin-5-yloxy)phenyl]sulfonyl-3-methylsulfonylbenzamide]: the pIC50 was 6.00 to 7.00. With `CC1(C)CCC(CN2CCN(c3ccc(S(=O)(=O)NC(=O)c4ccc5ccsc5n4)cc3)CC2)=C(c2ccc(Cl)cc2)C1` [Example 27, N-([4-[4-[[2-(4-chlorophenyl)-4,4-dimethylcyclohexen-1-yl]methyl]piperazin-1-yl]phenyl]sulfonyl)thieno[2,3-b]pyridine-6-carboxamide], the inhibition at 1 µM fell in the range of 50 to 90%. On the same count and under the same terms, under `CC1(C)CCC(CN2CCN(c3ccc(S(=O)(=O)NC(=O)c4cncc([N+](=O)[O-])c4)cc3)CC2)=C(c2ccc(Cl)cc2)C1` [Example 23, N-([4-[4-[[2-(4-chlorophenyl)-4,4-dimethylcyclohexen-1-yl]methyl]piperazin-1-yl]phenyl]sulfonyl)-5-nitropyridine-3-carboxamide] stands 50 to 90%. For the compound `Cc1c(Cl)c(C(=O)NS(=O)(=O)c2ccc(N3CCN(CC4=C(c5ccc(Cl)cc5)CC(C)(C)CC4)CC3)cc2Oc2cnc3[nH]ccc3c2)cc([N+](=O)[O-])c1NCC1CCOCC1` [Example 80, 2-Chloro-N-[4-[4-[[2-(4-chlorophenyl)-4,4-dimethylcyclohexen-1-yl]methyl]piperazin-1-yl]-2-(1H-pyrrolo[2,3-b]pyridin-5-yloxy)phenyl]sulfonyl-3-methyl-5-nitro-4-(oxan-4-ylmethylamino)benzamide], the negative logarithm of the IC50 (pIC50) is over 8.00. With `CC1(C)CCC(CN2CCN(c3ccc(S(=O)(=O)NC(=O)c4ccc(F)c(Cl)n4)cc3)CC2)=C(c2ccc(Cl)cc2)C1` [Example 1, 6-Chloro-N-[4-[4-[[2-(4-chlorophenyl)-4,4-dimethylcyclohexen-1-yl]methyl]piperazin-1-yl]phenyl]sulfonyl-5-fluoropyridine-2-carboxamide], the inhibition at 1 µM was in the range of 50 to 90%. Same read-out and setting: under `CC1(C)CCC(CN2CCN(c3ccc(S(=O)(=O)NC(=O)c4ccc([N+](=O)[O-])c(Cl)n4)cc3)CC2)=C(c2ccc(Cl)cc2)C1` [Example 2, 6-chloro-N-[4-[4-[[2-(4-chlorophenyl)-4,4-dimethylcyclohexen-1-yl]methyl]piperazin-1-yl]phenyl]sulfonyl-5-nitropyridine-2-carboxamide] stands 50 to 90%; under `Cn1cc(-c2nc(C(=O)NS(=O)(=O)c3ccc(N4CCN(CC5=C(c6ccc(Cl)cc6)CC(C)(C)CC5)CC4)cc3)ccc2F)ccc1=O` [Example 58, N-[4-[4-[[2-(4-Chlorophenyl)-4,4-dimethylcyclohexen-1-yl]methyl]piperazin-1-yl]phenyl]sulfonyl-3-fluoro-1′-methyl-6′-oxo-1′,6′-dihydro-[2,3′-bipyridine]-6-carboxamide], 50 to 90%.

With `CC1(C)CCC(CN2CCN(c3ccc(S(=O)(=O)NC(=O)c4ccc(Cl)c(C(F)(F)F)n4)c(Oc4cnc5[nH]ccc5c4)c3)CC2)=C(c2ccc(Cl)cc2)C1` [Example 71, 5-Chloro-N-[4-[4-[[2-(4-chlorophenyl)-4,4-dimethylcyclohexen-1-yl]methyl]piperazin-1-yl]-2-(1H-pyrrolo[2,3-b]pyridin-5-yloxy)phenyl]sulfonyl-6-(trifluoromethyl)pyridine-2-carboxamide], the pIC50 is 6.00 to 7.00.

Take `Cc1cc(C(=O)NS(=O)(=O)c2ccc(N3CCN(CC4=C(c5ccc(Cl)cc5)CC(C)(C)CC4)CC3)cc2Oc2cnc3[nH]ccc3c2)nn1C` [Example 77, N-[4-[4-[[2-(4-chlorophenyl)-4,4-dimethylcyclohexen-1-yl]methyl]piperazin-1-yl]-2-(1H-pyrrolo[2,3-b]pyridin-5-yloxy)phenyl]sulfonyl-1,5-dimethylpyrazole-3-carboxamide]: the pIC50 is 6.00 to 7.00. Turning to `CC1(C)CCC(CN2CCN(c3ccc(S(=O)(=O)NC(=O)c4ccc(F)c(-c5ccc6[nH]ncc6c5)n4)cc3)CC2)=C(c2ccc(Cl)cc2)C1` [Example 48, N-[4-[4-[[2-(4-chlorophenyl)-4,4-dimethylcyclohexen-1-yl]methyl]piperazin-1-yl]phenyl]sulfonyl-5-fluoro-6-(1H-indazol-5-yl)pyridine-2-carboxamide], the inhibition at 1 µM was in the range of 50 to 90%. Still for that read-out and setting: for `Cn1cc(-c2nc(C(=O)NS(=O)(=O)c3ccc(N4CCN(CC5=C(c6ccc(Cl)cc6)CC(C)(C)CC5)CC4)cc3)ccc2F)cn1` [Example 45, N-[4-[4-[[2-(4-chlorophenyl)-4,4-dimethylcyclohexen-1-yl]methyl]piperazin-1-yl]phenyl]sulfonyl-5-fluoro-6-(1-methyl-1H-pyrazol-4-yl)pyridine-2-carboxamide] the value was 50 to 90%. As for `COCc1cc(C(=O)NS(=O)(=O)c2ccc(N3CCN(CC4=C(c5ccc(Cl)cc5)CC(C)(C)CC4)CC3)cc2Oc2cnc3[nH]ccc3c2)cc([N+](=O)[O-])c1` [Example 85, N-[4-[4-[[2-(4-chlorophenyl)-4,4-dimethylcyclohexen-1-yl]methyl]piperazin-1-yl]-2-(1H-pyrrolo[2,3-b]pyridin-5-yloxy)phenyl]sulfonyl-3-(methoxymethyl)-5-nitrobenzamide], the pIC50 was 7.00 to 8.00. Still for that read-out and setting: for `Cc1c(Cl)c(C(=O)NS(=O)(=O)c2ccc(N3CCN(CC4=C(c5ccc(Cl)cc5)CC(C)(C)CC4)CC3)cc2Oc2cnc3[nH]ccc3c2)cc([N+](=O)[O-])c1OCC1CCOC1` (stereo not shown) [Example 106, 2-chloro-N-[4-[4-[[2-(4-chlorophenyl)-4,4-dimethylcyclohexen-1-yl]methyl]piperazin-1-yl]-2-(1H-pyrrolo[2,3-b]pyridin-5-yloxy)phenyl]sulfonyl-3-methyl-5-nitro-4-(oxolan-3-ylmethoxy)benzamide] the value was over 8.00.

With `Cc1c(C(=O)NS(=O)(=O)c2ccc(N3CCN(CC4=C(c5ccc(Cl)cc5)CC(C)(C)CC4)CC3)cc2)nnn1Cc1ccccc1` [Example 4, 1-benzyl-N-[4-[4-[[2-(4-chlorophenyl)-4,4-dimethylcyclohexen-1-yl]methyl]piperazin-1-yl]phenyl]sulfonyl-5-methyl-1H-1,2,3-triazole-4-carboxamide], the inhibition at 1 µM was in the range of 50 to 90%. As to `CC1(C)CCC(CN2CCN(c3ccc(S(=O)(=O)NC(=O)c4ccc(CN5CCOCC5)c([N+](=O)[O-])c4)c(Oc4cnc5[nH]ccc5c4)c3)CC2)=C(c2ccc(Cl)cc2)C1` [Example 90, N-[4-[4-[[2-(4-chlorophenyl)-4,4-dimethylcyclohexen-1-yl]methyl]piperazin-1-yl]-2-(1H-pyrrolo[2,3-b]pyridin-5-yloxy)phenyl]sulfonyl-4-(morpholin-4-ylmethyl)-3-nitrobenzamide], the pIC50 is 6.00 to 7.00. For the compound `COCc1ccc(C(=O)NS(=O)(=O)c2ccc(N3CCN(CC4=C(c5ccc(Cl)cc5)CC(C)(C)CC4)CC3)cc2)cc1` [Example 19, N-([4-[4-[[2-(4-chlorophenyl)-4,4-dimethylcyclohexen-1-yl]methyl]piperazin-1-yl]phenyl]sulfonyl)-4-(methoxymethyl)benzamide], the inhibition at 1 µM was in the range of 50 to 90%. Still for that read-out and setting: for `Cn1ccc(-c2nc(C(=O)NS(=O)(=O)c3ccc(N4CCN(CC5=C(c6ccc(Cl)cc6)CC(C)(C)CC5)CC4)cc3)ccc2F)cc1=O` [Example 56, N-[4-[4-[[2-(4-Chlorophenyl)-4,4-dimethylcyclohexen-1-yl]methyl]piperazin-1-yl]phenyl]sulfonyl-3-fluoro-1′-methyl-2′-oxo-1′,2′-dihydro-[2,4′-bipyridine]-6-carboxamide] the value was 50 to 90%.

`COc1c([N+](=O)[O-])cc(C(=O)NS(=O)(=O)c2ccc(N3CCN(CC4=C(c5ccc(Cl)cc5)CC(C)(C)CC4)CC3)cc2Oc2cnc3[nH]ccc3c2)c(Cl)c1C` [Example 101, 2-chloro-N-[4-[4-[[2-(4-chlorophenyl)-4,4-dimethylcyclohexen-1-yl]methyl]piperazin-1-yl]-2-(1H-pyrrolo[2,3-b]pyridin-5-yloxy)phenyl]sulfonyl-4-methoxy-3-methyl-5-nitrobenzamide]: the pIC50 was 7.00 to 8.00. For the compound `Cn1cc(-c2nc(C(=O)NS(=O)(=O)c3ccc(N4CCN(CC5=C(c6ccc(Cl)cc6)CC(C)(C)CC5)CC4)cc3Oc3cnc4[nH]ccc4c3)ccc2F)cn1` [Example 63, N-[4-[4-[[2-(4-Chlorophenyl)-4,4-dimethylcyclohexen-1-yl]methyl]piperazin-1-yl]-2-(1H-pyrrolo[2,3-b]pyridin-5-yloxy)phenyl]sulfonyl-5-fluoro-6-(1-methylpyrazol-4-yl)pyridine-2-carboxamide], the pIC50 is 7.00 to 8.00. Take `CN1C(=O)CCc2cc(C(=O)NS(=O)(=O)c3ccc(N4CCN(CC5=C(c6ccc(Cl)cc6)CC(C)(C)CC5)CC4)cc3)ccc21` [Example 10, N-([4-[4-[[2-(4-chlorophenyl)-4,4-dimethylcyclohexen-1-yl]methyl]piperazin-1-yl]phenyl]sulfonyl)-1-methyl-2-oxo-1,2,3,4-tetrahydroquinoline-6-carboxamide]: the inhibition at 1 µM was in the range of 50 to 90%.
